Data set [1] is described as follows: Open field test, locomotor activity. The class given is in vivo. The note with it: for time for which increase in locomotor activity was retained: single i.p., 50 mg/kg stated for R-phenotropil; for locomotor effect compared with R-phenotropil: respective doses, S-enantiomer at 50 mg/kg. As for the experimental part: Locomotor activity was tested in an open field test 30, 60, 120, 180 and 240 min after a single i.p. injection of the racemic phenotropil and R- and S-enantiomers (FIG. 1A,B,C,D). […] R-phenotropil in 5, 10 and 50 mg/kg doses induced a statistically significant increase in locomotor activity in comparison with the control animals [F(3.31)=10.37, p<0.0001] (FIG. 1A,C). Furthermore, R-phenotropil in the dose of 50 mg/kg retained a statistically significant increase in locomotor activity for up to 240 min [F(9.80)=24.03, p<0.0001] (FIG. 1B,D).

Data set [2] can be described thus: Cylinder test, muscle strength and coordination. The format is in vivo. As to conditions: for effect on muscle strength and coordination: cylinder, traction and rotating rod tests, up to 500 mg/kg. As for the experimental part:
(§1) None of the compounds affected rectal temperature at the dose of 500 mg/kg (Table 1).
(§2) The compounds were administered in i.p. doses of 50, 100, 250 and 500 mg/kg. The effect of the substances in different tests was evaluated 30, 60, 120 and 180 min after the administration of the compounds. ED50 value was calculated by, performing probit analysis.

The nature of data set [3]: Traction test, muscle strength and coordination. The format is in vivo. The note with it: i.p. 50, 100, 250 and 500 mg/kg, 30-180 min, probit analysis. As for the experimental part: as §1, §2
A short description of another data set: Rectal temperature. The class given is in vivo. The note with it: i.p. 50, 100, 250 and 500 mg/kg, 30-180 min, probit analysis. As for the experimental part:
as §1, §2

Another data set deals with mice. Nature of the data set: Passive avoidance test, latent period of the remembering process. The class given is in vivo. As to conditions: for effect on latent period / passive avoidance: dose not given; for increase of latent period in comparison with control group: mice. As for the experimental part:
The influence of racemic, R- and S-phenotropil on memory processes was determined by means of a passive avoidance test (PCR), by registering the latent period of the remembering process.

Data set [4] is described as follows: Forced swimming test (duration of immobility), antidepressive effect. The class given is in vivo. The note with it: for doses significantly reducing duration of immobility vs control group: 30 min after i.p. injection, doses tested 10, 50 and 100 mg/kg. As for the experimental part: The antidepressive effect of the racemic, R- and S-phenotropil was tested in a forced swimming test (by determining the duration of immobility) 30 min after the i.p. injection of the compounds in doses 10, 50 and 100 mg/kg (FIG. 2).

The nature of data set [5]: Rotating rod test, muscle strength and coordination. The class given is in vivo. As to conditions: i.p. 50, 100, 250 and 500 mg/kg, 30-180 min, probit analysis. As for the experimental part: as §1, §2
The conditions of data set [6]: nootropic activity, literature (Malykh, Sadaie 2010); cited from earlier work.
In the next data set the test system is Zucker fa/fa rats. Nature of the data set: Body mass gain in Zucker fa/fa rats, 12 weeks oral administration. The class given is in vivo. As for the experimental part: The influence of an S-phenotropil containing composition on the body mass. Zucker fa/fa (HsdOla:Zucker-Lepfre; Harlan Laboratories) and Zucker lean line rats (HsdOla:Zucker-Lean; Harlan Laboratories) with the body mass of 100-170 g were used during the experiment. At the beginning of the experiment the animals were 6 weeks old. Standard conditions for keeping the experimental animals were ensured (air temperature 21° C.-23° C., relative air humidity 65%±10%, 12 hour light/darkness cycle). Standardised feed (R70) by the company LABFOR (Lactamin AB, Sweden) was used to feed the animals, drinking water was accessible without limitations.
S-phenotropil containing pharmaceutical composition in water or water was orally administered to the mature male rats included into the experimental group once daily in the morning: To the Zucker lean group (n=10), water p.o., to the Zucker fa/fa control group (n=10), water p.o. or to the Zucker fa/fa group S-phenotropil containing composition 50 mg/kg (n=5), p.o. The resulting values were expressed as mean values±standard error of the mean (S.E.M.) T-test was used to check the validity of the results. The results were considered valid, if the p value was less than 0.05. […] Since the increase in mass for ZuckerLean control rats is primarily connected with normal increase in muscle mass, as the animals grow, the effect of S-phenotropil in terms of the increase of ZuckerFF fat mass is 39% (FIG. 6).

Setting [7] is: i.p. 50, 100, 250 and 500 mg/kg, 30-180 min, probit analysis.
[8] abbreviates: Zucker fa/fa rats, 50 mg/kg p.o. once daily, mean ± S.E.M.

Entries after “also recorded” stand apart in the source; their conditions may differ. Marks after values point to notes of the source that are not given here. A value given as a limit tells only on which side of the number the result lay.

As usually defined, the ED50 is the dose that gives a 50% effect, or the effect in half of the subjects. High values mean weaker potency, low ones greater potency.

`NC(=O)CN1C[C@@H](c2ccccc2)CC1=O` [R-phenotropil]: the “time for which increase in locomotor activity was retained” value in [1] was “up to 240 min”. Besides, the “ED50 Cylinder” value in [2] (setting [7]) turned out to be 258 ± 25 mg/kg. Moreover, the “ED50 Traction” value in data set [3] is 250 ± 40 mg/kg. The “ED50 Rectal temperature” value in the data set “Rectal temperature” is more than 500 mg/kg. Also, in the data set with mice (1 mg/kg), the “effect on latent period in comparison with control group” value was “significantly increased the latent period” and the “increase of latent period in comparison with control group” value is 195%. Besides, the “effect on latent period / passive avoidance” value in the data set on mice is “considerably affects memory”. Further, the “increase of latent period in comparison with control group” value in the data set on mice (10 mg/kg) worked out at 185%. For the same molecule, in [4] (100 mg/kg i.p., 30 min), the “reduction of duration of immobility in comparison with control group” value amounted to 8 times. Also, in data set [4] (i.p., 30 min after injection), the “antidepressive effect compared with the other tested compounds / control” value was “significantly higher in comparison with racemic and S-phenotropil”. Also, the “ED50 Rotating rod” value in data set [5] amounted to 320 ± 60 mg/kg.
Regarding `NC(=O)CN1CC(c2ccccc2)CC1=O` (racemic) [Phenotropil racemate], in data set [1], the “locomotor effect compared with R-phenotropil” value is given as “less active than R-phenotropil” and the “time for which increase in locomotor activity was retained” value is “up to 180 min”. Further, in data set [2], the “effect on muscle strength and coordination” value is “did not affect muscle strength and coordination”. In [2] (setting [7]), the “ED50 Cylinder” value is more than 500 mg/kg. Further, in [3], the “ED50 Traction” value is reported as more than 500 mg/kg. Moreover, the “ED50 Rectal temperature” value in the data set “Rectal temperature” is listed as more than 500 mg/kg. Also, the “effect on latent period in comparison with control group” value in the data set on mice (1 mg/kg) is “significantly increased the latent period”. For the same molecule, the “doses significantly reducing duration of immobility vs control group” value in data set [4] is 100 mg/kg. Further, the “activity relative to piracetam” value in data set [6] is 30-60 times. In data set [5], the “ED50 Rotating rod” value is more than 500 mg/kg.
Regarding `NC(=O)CN1C[C@H](c2ccccc2)CC1=O` [S-phenotropil, (S)-2-(2-oxo-4-phenylpyrrolidin-1-yl)acetamide], the “dose for statistically significant effect on locomotor activity relative to R-phenotropil” value in [1] was found to be 10 times. In data set [1], the “locomotor effect compared with R-phenotropil” value is given as “statistically significantly weaker than the effect of R-enantiomer”. The “doses inducing statistically significant increase in locomotor activity vs control animals” value in data set [1] (single i.p. injection) was found to be 50 mg/kg. For the same molecule, in data set [2], the “effect on muscle strength and coordination” value was “did not affect muscle strength and coordination”. Further, the median effective dose (ED50) in data set [2] (in vivo, intraperitoneal, i.p. 50, 100, 250 and 500 mg/kg, 30-180 min, probit analysis) is more than 500 mg/kg; in [3] (in vivo, intraperitoneal), more than 500 mg/kg; in the data set “Rectal temperature” (in vivo, intraperitoneal), more than 500 mg/kg; in data set [5] (in vivo, intraperitoneal), more than 500 mg/kg. Also, in the data set on Zucker fa/fa rats (Zucker FF rats, 12 weeks, 50 mg/kg p.o.), the “effect on weight increase” value is given as “statistically significantly reduced the weight increase”. The “Increase in fat mass in Week 12” value in the data set on Zucker fa/fa rats (setting [8]) is 106 ± 7 g. Also, the “Weight increase in Week 12” value in the data set on Zucker fa/fa rats (setting [8]) is 2645 ± 30*^, # AUC units. Further, in the data set with Zucker fa/fa rats (Zucker fa/fa rats, 50 mg/kg p.o., 12 weeks), the “reduction of total weight gain” value was 22%. Also, the “effect in terms of the increase of ZuckerFF fat mass” value with Zucker fa/fa rats (Zucker fa/fa rats, 50 mg/kg p.o., 12 weeks, relative to Zucker lean growth) came to 39%. Further, the “effect on latent period / passive avoidance” value in the data set with mice is “does not have any effect in a passive avoidance test; also recorded: did not affect the latent period”. The “doses significantly reducing duration of immobility vs control group” value in data set [4] is recorded as 100 mg/kg.
